{
  "source": "patent US6656921B1",
  "about": "“Use of zinc hyaluronate against peptic ulcer” (Richter Gedeon Vegyeszeti Gyar RT., priority 1997, dated 2003)",
  "type_in_all_cases": "in vivo, rat",
  "key": {"[1]": {"test_system": "acidified ethanol induced gastric damage", "experiment": "Effect of L-NAME (endogenous NO) on protection against acidified-ethanol induced gastric damage", "experimental": "To study the mechanism of action of the compound to be tested, the involvement of endogenous NO in the development of acidified-ethanol induced gastric damage was also studied by intraperitoneal administration of L-N^G-nitroarginine methyl ester (L-NAME). L-NAME at a dose of 25 mg/kg was injected 15 minutes before the test compound. In subsequent experiments the test compound (p.o.), L-NAME (25 mg/kg i.p.), L-arginine (400 mg/kg i.v.) were administered 30, 45 or 60 minutes before oral administration of acidified-ethanol.\nThe connection between the cytoprotective effect of zinc hyaluronate and endogenic NO was studied by using an inhibitor of the nitrogen(II) oxide biosynthesis namely, N^G-nitro-L-arginine methyl ester (L-NAME). Considering that zinc hyaluronate(II) and zinc hyaluronate(M) had shown the same activity in acidified ethanol test, the latter was the only one tested in this experiment."}, "[2]": {"test_system": "stress-induced gastric lesion", "experiment": "Inhibition of stress (cold-restraint) induced gastric lesions", "conditions": "for Lesion score/stomach ± S.E.M.: 30 min before cold-restraint stress, score 0-3; for Inhibition: 30 min before stress", "experimental": "Female RG Wistar rats weighing between 120-150 g were used. Before the experiments animals were fasted for 24 hours but received water ad libitum. Experiments were carried out according to the technique similar to that described by Senay et al., (1967). [Proc. Soc. Exp. Biol. Med.124,1221, (1967)].\nTest compounds were given orally. 30 minutes later the animals were immobilized in plastic restraint boxes then placed into a refrigerator at 4° C.-8° C. temperature. Four hours later the animals were removed from both the refrigerator and the restraint boxes and one hour later they were sacrificed by cervical dislocation. The stomachs were removed, opened along the greater curvature and hemorrhagic lesions were scored by a zero to 3 scale: stomachs free from any damage were given a score of 0, stomachs with only a few hemorrhagic lesion were given a score of 1, stomachs with more lesion numbers than 10 were given a score of 2, and stomachs with a lot of lesions were characterized with a score of 3.\nThe ED50 were defined as the dose needed to decrease the score of gastric lesions by 50%."}, "[3]": {"test_system": "gastrointestinal motility", "experiment": "Gastrointestinal motility in the charcoal propulsion test", "conditions": "100 mg/kg p.o.", "experimental": "Experiments were performed on female, RG-Wistar rats weighing 120-140 g, which were fasted for 24 hours but received water ad libitum.\nThe experimental procedure was carried out according to the technique similar to that described of P. A. Janssen and A. J. Jageneau [J. Pharm. Pharmacel. 9, 381 (1957)].\nTest compounds were given orally at a dose of 100 mg/kg. Control animals received physiological saline solution instead of test compounds. 30 minutes later, the 5% (w/v) charcoal suspension was administered orally at a volume of 0.5 ml/animal. 60 minutes after the charcoal treatment the animals were sacrificed by cervical dislocation. The intestine from pylorus to cecum was removed, its lengths measured along with the distance traversed by the charcoal meal.\nMotility was expressed as the ratio of length of charcoal suspension to the length of the whole intestine."}, "[4]": {"test_system": "acetic acid induced chronic gastric ulcer", "experiment": "Inhibition of acetic acid induced chronic gastric ulcer", "conditions": "for Ulcerated area mm^2 ± S.E.M.: day 5 to 14 after surgery", "experimental": "Female, RG Wistar rats weighing between 120-150 g were used. Before the surgery animals were deprived of food for 24 hours but received water ad libitum. The chronic gastric ulcer was induced by the injection of 25 μl/animal of 20% (v/v) acetic acid into the gastric wall under light ether anaesthesia according to the method similar to that described by Takagi et al. (1969). The oral treatment with the test compounds was started five days after the surgery and continued in a once-a-day regimen up to the 14th day. The animals were killed on the 15th day and their stomachs were dissected. The severity of ulceration was evaluated by the measurement of the diameter of the ulcers and the area affected was calculated. The healing effect was expressed as differences in percentage between the control and test group values."}, "[5]": {"test_system": "acidified ethanol induced gastric lesion", "experiment": "Inhibition of acidified-ethanol induced gastric lesions", "experimental": "Female RG-Wistar rats weighing between 120-150 g were used. Before experiments animals were fasted for 24 hours but received water ad libitum.\nExperiments were carried out according to the technique similar to that described by A. Robert [Gastroenterology 77, […] (1979)].\nAcidified ethanol (mixture of 50 ml of abs. ethanol and 1 ml of concentrated HCI) was used as strong irritants. Dose of acidified ethanol was 0.5 ml/100 g body weight with intragastric administration. Test compounds were given orally 30 minutes before the acidified ethanol challenge. When the duration of action of test compound was studied test material was administered 60 or 120 minutes earlier to the irritating effect induced by acidified-ethanol effect. One hour after the acidified ethanol treatment rats were sacrificed by cervical dislocation. Stomachs were removed and opened along the greater curvature and mildly washed down. The longitudinal hemorrhagic lesions were assayed by length.\nED50 value was defined as the dose that gave a 50% decrease in ulcer index."}, "[6]": {"conditions": "D-Arg + L-NAME + ZH/M, 400 + 25 + 50 mg/kg"}, "[7]": {"conditions": "L-Arg + L-NAME + ZH/M, 400 + 25 + 50 mg/kg"}, "[8]": {"conditions": "10 mg/kg p.o., 30 min before acidified ethanol"}, "[9]": {"conditions": "25 mg/kg p.o., 30 min before acidified ethanol"}, "[10]": {"conditions": "25 mg/kg p.o., pretreatment time 60 minutes"}, "[11]": {"conditions": "25 mg/kg p.o., pretreatment time 120 minutes"}, "[12]": {"conditions": "50 mg/kg p.o., 30 min before acidified ethanol"}, "[13]": {"conditions": "50 mg/kg p.o., pretreatment time 60 minutes"}, "[14]": {"conditions": "50 mg/kg p.o., pretreatment time 120 minutes"}, "[15]": {"conditions": "100 mg/kg p.o., 30 min before acidified ethanol"}, "[16]": {"conditions": "100 mg/kg p.o., pretreatment time 60 minutes"}, "[17]": {"conditions": "100 mg/kg p.o., pretreatment time 120 minutes"}},
  "note": "Marks after values point to notes of the source that are not given here.",
  "data": [
    {"substance": "zinc hyaluronate [Zinc hyaluronate (M)]", "values": [
      {"measurement": "Inhibition (compared with the vehicle + vehicle group)", "setting": "[1]; [6]", "result": 48.4, "unit": "%"},
      {"measurement": "Lesion length/stomach mm ± S.E.M.", "setting": "[1]; [6]", "result": "31.2 ± 3.5*d mm"},
      {"measurement": "Inhibition (compared with the vehicle + vehicle group)", "setting": "[1]; [7]", "result": 60.2, "unit": "%"},
      {"measurement": "Lesion length/stomach mm ± S.E.M.", "setting": "[1]; [7]", "result": "24.1 ± 4.4*c mm"},
      {"measurement": "Effect of L-NAME pretreatment on the gastroprotective activity (in words)", "setting": "[1]; L-NAME 25 mg/kg", "result": "considerably reduced"},
      {"measurement": "Inhibition (compared with the vehicle + vehicle group)", "setting": "[1]; L-NAME + ZH/M, 25 + 50 mg/kg", "result": 31.9, "unit": "%"},
      {"measurement": "Lesion length/stomach mm ± S.E.M.", "setting": "[1]; L-NAME + ZH/M, 25 + 50 mg/kg", "result": "41.2 ± 4.6*b mm"},
      {"measurement": "Inhibition (compared with the vehicle + vehicle group)", "setting": "[1]; Vehicle + ZH/M, 0 + 50 mg/kg", "result": 69.6, "unit": "%"},
      {"measurement": "Lesion length/stomach mm ± S.E.M.", "setting": "[1]; Vehicle + ZH/M, 0 + 50 mg/kg", "result": "18.4 ± 2.3", "unit": "mm"},
      {"measurement": "Lesion score/stomach ± S.E.M.", "setting": "[2]; 25 mg/kg p.o.", "result": "1.0 ± 0.3"},
      {"measurement": "Inhibition", "setting": "[2]; 25 mg/kg p.o.", "result": 41.2, "unit": "%"},
      {"measurement": "Lesion score/stomach ± S.E.M.", "setting": "[2]; 50 mg/kg p.o.", "result": "0.4 ± 0.2"},
      {"measurement": "Inhibition", "setting": "[2]; 50 mg/kg p.o.", "result": 76.5, "unit": "%"},
      {"measurement": "Lesion score/stomach ± S.E.M.", "setting": "[2]; 100 mg/kg p.o.", "result": "0*"},
      {"measurement": "Inhibition", "setting": "[2]; 100 mg/kg p.o.", "result": 100, "unit": "%"},
      {"measurement": "ED50 (dose decreasing score of gastric lesions by 50%)", "setting": "[2]; oral administration", "result": 29.4, "unit": "mg/kg"},
      {"measurement": "Effect on the intestinal motility (in words)", "setting": "[3]", "result": "absence of change in activity"},
      {"measurement": "Ratio of charcoal suspension to the whole intestinal part", "setting": "[3]", "result": "0.83 ± 0.03"},
      {"measurement": "Propulsion of charcoal suspension mm ± S.E.M.", "setting": "[3]; 30 min before charcoal, 60 min after charcoal", "result": "655 ± 3.9", "unit": "mm"},
      {"measurement": "Ulcerated area mm^2 ± S.E.M.", "setting": "[4]; 0.1 mg/kg p.o. once a day", "result": "9.4 ± 2.3", "unit": "mm^2"},
      {"measurement": "Ulcerated area mm^2 ± S.E.M.", "setting": "[4]; 1.0 mg/kg p.o. once a day", "result": "7.6 ± 1.4", "unit": "mm^2"},
      {"measurement": "Effect on healing of acetic acid induced chronic ulcer (in words)", "setting": "[4]; rat, in vivo", "result": "accelerated the healing"},
      {"measurement": "Inhibition", "setting": "[5]; [8]", "result": 47.7, "unit": "%"},
      {"measurement": "Lesion length/stomach mm ± S.E.M.", "setting": "[5]; [8]", "result": "57.9 ± 8.2", "unit": "mm"},
      {"measurement": "Inhibition", "setting": "[5]; [9]", "result": 69.9, "unit": "%"},
      {"measurement": "Lesion length/stomach mm ± S.E.M.", "setting": "[5]; [9]", "result": "33.3 ± 7.7", "unit": "mm"},
      {"measurement": "Inhibition", "setting": "[5]; [10]", "result": 28.7, "unit": "%"},
      {"measurement": "Lesion length/stomach mm ± S.E.M.", "setting": "[5]; [10]", "result": "49.7 ± 5.9", "unit": "mm"},
      {"measurement": "Inhibition", "setting": "[5]; [11]", "result": 12.2, "unit": "%"},
      {"measurement": "Lesion length/stomach mm ± S.E.M.", "setting": "[5]; [11]", "result": "53.2 ± 7.7", "unit": "mm"},
      {"measurement": "Inhibition", "setting": "[5]; [12]", "result": 88.3, "unit": "%"},
      {"measurement": "Lesion length/stomach mm ± S.E.M.", "setting": "[5]; [12]", "result": "13.0 ± 3.0", "unit": "mm"},
      {"measurement": "Inhibition", "setting": "[5]; [13]", "result": 45.6, "unit": "%"},
      {"measurement": "Lesion length/stomach mm ± S.E.M.", "setting": "[5]; [13]", "result": "37.9 ± 12.2", "unit": "mm"},
      {"measurement": "Inhibition", "setting": "[5]; [14]", "result": 45.9, "unit": "%"},
      {"measurement": "Lesion length/stomach mm ± S.E.M.", "setting": "[5]; [14]", "result": "32.8 ± 7.5", "unit": "mm"},
      {"measurement": "Inhibition", "setting": "[5]; [15]", "result": 97.6, "unit": "%"},
      {"measurement": "Lesion length/stomach mm ± S.E.M.", "setting": "[5]; [15]", "result": "2.7 ± 1.4", "unit": "mm"},
      {"measurement": "Inhibition", "setting": "[5]; [16]", "result": 93.4, "unit": "%"},
      {"measurement": "Lesion length/stomach mm ± S.E.M.", "setting": "[5]; [16]", "result": "4.6 ± 1.7", "unit": "mm"},
      {"measurement": "Inhibition", "setting": "[5]; [17]", "result": 83.0, "unit": "%"},
      {"measurement": "Lesion length/stomach mm ± S.E.M.", "setting": "[5]; [17]", "result": "10.3 ± 4.6", "unit": "mm"},
      {"measurement": "ED50 (dose giving 50% decrease in ulcer index)", "setting": "[5]; p.o., 30 min pretreatment", "result": 10.4, "unit": "mg/kg"}
    ]}
  ]
}
